Experimental findings from ChEMBL document CHEMBL1909046, “DrugMatrix in vitro pharmacology data” are described below.

In data set [1] the target is T1, Alpha-1D adrenergic receptor (Homo sapiens, UniProt P25100). Further: in other assays of this panel Not Active means under 50% inhibition at 10 µM.
T1 sequence (P25100 whole entry): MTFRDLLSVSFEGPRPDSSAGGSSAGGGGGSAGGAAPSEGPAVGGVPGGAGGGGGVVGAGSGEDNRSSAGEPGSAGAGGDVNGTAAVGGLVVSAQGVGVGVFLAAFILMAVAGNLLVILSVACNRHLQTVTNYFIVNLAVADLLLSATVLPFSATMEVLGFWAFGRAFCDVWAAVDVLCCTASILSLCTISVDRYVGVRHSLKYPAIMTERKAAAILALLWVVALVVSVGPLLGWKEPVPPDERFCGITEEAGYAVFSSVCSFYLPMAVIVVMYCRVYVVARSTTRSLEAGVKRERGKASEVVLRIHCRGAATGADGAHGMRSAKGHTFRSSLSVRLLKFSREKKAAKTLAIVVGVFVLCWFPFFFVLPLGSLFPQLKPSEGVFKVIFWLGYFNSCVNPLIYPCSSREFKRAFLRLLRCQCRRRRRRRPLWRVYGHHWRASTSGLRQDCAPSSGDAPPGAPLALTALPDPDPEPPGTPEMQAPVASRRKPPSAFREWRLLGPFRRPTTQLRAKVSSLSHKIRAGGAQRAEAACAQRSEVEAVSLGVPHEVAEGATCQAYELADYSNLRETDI
The format is cell membranes, HEK293, Membrane. Particulars: hek293.

Data set [2] is described as follows: DRUGMATRIX: Sigma2 radioligand binding (ligand: [3H] Ifenprodil). It counts as cell membranes, Rattus norvegicus, Wistar, Brain, Membrane. Particulars: Not Active = under 50% inhibition at 10 µM.
Data set [3] has as its target T2, Substance-K receptor (Homo sapiens, UniProt P21452). Further: in other assays of this panel Not Active means under 50% inhibition at 10 µM.
T2 sequence (P21452 whole entry): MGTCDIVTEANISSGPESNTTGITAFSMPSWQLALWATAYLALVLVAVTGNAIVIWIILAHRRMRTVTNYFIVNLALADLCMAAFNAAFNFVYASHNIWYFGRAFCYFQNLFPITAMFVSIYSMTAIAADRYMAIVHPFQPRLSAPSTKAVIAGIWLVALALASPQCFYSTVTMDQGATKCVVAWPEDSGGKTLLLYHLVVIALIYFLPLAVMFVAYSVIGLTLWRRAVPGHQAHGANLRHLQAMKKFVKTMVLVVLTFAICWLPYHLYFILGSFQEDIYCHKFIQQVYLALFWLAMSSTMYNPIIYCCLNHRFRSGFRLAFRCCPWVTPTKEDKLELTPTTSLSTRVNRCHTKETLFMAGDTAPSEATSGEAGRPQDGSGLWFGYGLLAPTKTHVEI
The format is cell membranes, CHO, Membrane.

Data set [4] concerns the target Cannabinoid receptor 1 (Homo sapiens, UniProt P21554). The format is cell membranes, Membrane. Particulars: chem-1. Further: in other assays of this panel Not Active means under 50% inhibition at 10 µM.
The target in data set [5] is Carbonic anhydrase 2 (Homo sapiens, UniProt P00918). In words: DRUGMATRIX: Carbonic Anhydrase II enzyme inhibition (substrate: 4-Nitrophenyl acetate (4-NPA)). As to conditions: erythrocyte; Not Active = under 50% inhibition at 10 µM. The format is tissue-based, Erythrocyte.
Data set [6] is described as follows: DRUGMATRIX: GABAA, Muscimol, Central radioligand binding (ligand: [3H] Muscimol). The format is cell membranes, Rattus norvegicus, Wistar, Brain, Membrane. Particulars: Not Active = under 50% inhibition at 10 µM.
Data set [7] concerns the target T3, Leukotriene C4 synthase (Cavia porcellus, UniProt A6XA80).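 Further: enzyme inhibition assay of leukotriene C4 synthase, using LTA4 as the substrate; in other assays of this panel Not Active means under 50% inhibition at 10 µM.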
T3 sequence (A6XA80 whole entry): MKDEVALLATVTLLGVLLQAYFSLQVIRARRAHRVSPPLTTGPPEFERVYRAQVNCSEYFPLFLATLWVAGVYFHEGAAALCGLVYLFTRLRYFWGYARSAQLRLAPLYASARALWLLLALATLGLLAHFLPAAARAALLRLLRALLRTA
In words: biochemical. It counts as tissue-based, Lung.

The target of data set [8] is Mitogen-activated protein kinase 14 (Homo sapiens, UniProt Q16539). Further details: species or system Escherichia coli.
Data set [9] concerns the target Tyrosine-protein kinase Fyn (Homo sapiens, UniProt P06241). As to the kind of experiment: biochemical. The format is cell-based, Insect cells. As to conditions: insect cells.
Data set [10] deals with Acetylcholinesterase (Homo sapiens, UniProt P22303). As to the kind of experiment: DRUGMATRIX: Acetylcholinesterase enzyme inhibition (substrate: acetylthiocholine). As to conditions: hek293; Not Active = under 50% inhibition at 10 µM. The format is cell-based, HEK293.
Data set [11] concerns the target T4, Adenosine receptor A3 (Homo sapiens, UniProt P0DMS8).
T4 sequence (P0DMS8 whole entry): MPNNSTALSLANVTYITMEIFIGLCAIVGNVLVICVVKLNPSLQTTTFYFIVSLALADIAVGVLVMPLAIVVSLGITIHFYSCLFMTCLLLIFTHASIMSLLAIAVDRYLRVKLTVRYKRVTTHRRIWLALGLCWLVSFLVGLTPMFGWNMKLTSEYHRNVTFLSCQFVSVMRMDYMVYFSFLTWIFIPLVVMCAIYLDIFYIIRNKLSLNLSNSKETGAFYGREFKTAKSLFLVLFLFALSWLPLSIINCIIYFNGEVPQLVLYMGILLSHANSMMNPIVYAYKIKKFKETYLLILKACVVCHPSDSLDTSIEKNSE
The format is cell membranes, CHO-K1, Membrane.

For data set [12], the target named is T5, Cytochrome P450 2A6 (Homo sapiens, UniProt P11509). Further: in other assays of this panel Not Active means under 50% inhibition at 10 µM.
T5 sequence (P11509 whole entry): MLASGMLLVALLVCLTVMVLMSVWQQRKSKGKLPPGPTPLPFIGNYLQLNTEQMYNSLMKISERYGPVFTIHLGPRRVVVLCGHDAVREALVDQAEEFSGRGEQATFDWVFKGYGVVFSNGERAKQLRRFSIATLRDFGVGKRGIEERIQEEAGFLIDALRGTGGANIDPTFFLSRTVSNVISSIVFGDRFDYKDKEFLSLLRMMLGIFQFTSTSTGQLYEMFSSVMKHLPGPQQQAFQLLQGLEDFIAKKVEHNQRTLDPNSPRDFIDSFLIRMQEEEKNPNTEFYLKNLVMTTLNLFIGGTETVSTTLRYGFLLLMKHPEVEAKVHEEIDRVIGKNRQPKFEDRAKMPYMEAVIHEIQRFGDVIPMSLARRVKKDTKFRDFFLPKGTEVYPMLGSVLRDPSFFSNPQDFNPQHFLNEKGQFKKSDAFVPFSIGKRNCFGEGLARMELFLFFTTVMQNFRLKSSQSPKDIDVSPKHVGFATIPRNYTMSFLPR
As to conditions: bti-tn-5b1-4.

For data set [13], the target named is Cytochrome P450 2C9 (Homo sapiens, UniProt P11712). Particulars: bti-tn-5b1-4. Further: in other assays of this panel Not Active means under 50% inhibition at 10 µM.
Chain of Cytochrome P450 2C9 (P11712 whole entry): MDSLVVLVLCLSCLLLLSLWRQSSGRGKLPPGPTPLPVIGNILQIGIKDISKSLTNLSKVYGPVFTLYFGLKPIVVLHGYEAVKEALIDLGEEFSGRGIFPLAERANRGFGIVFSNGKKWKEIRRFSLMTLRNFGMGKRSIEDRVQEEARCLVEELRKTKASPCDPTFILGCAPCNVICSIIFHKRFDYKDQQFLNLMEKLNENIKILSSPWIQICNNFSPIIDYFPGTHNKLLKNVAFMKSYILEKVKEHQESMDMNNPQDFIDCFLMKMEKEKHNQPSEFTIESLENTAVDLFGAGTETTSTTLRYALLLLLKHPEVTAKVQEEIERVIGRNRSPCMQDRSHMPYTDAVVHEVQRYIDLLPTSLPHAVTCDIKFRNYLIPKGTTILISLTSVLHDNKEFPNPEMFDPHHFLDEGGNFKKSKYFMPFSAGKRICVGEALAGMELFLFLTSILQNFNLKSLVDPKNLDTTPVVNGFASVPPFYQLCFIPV

Chain of Mitogen-activated protein kinase 14 (Q16539 whole entry): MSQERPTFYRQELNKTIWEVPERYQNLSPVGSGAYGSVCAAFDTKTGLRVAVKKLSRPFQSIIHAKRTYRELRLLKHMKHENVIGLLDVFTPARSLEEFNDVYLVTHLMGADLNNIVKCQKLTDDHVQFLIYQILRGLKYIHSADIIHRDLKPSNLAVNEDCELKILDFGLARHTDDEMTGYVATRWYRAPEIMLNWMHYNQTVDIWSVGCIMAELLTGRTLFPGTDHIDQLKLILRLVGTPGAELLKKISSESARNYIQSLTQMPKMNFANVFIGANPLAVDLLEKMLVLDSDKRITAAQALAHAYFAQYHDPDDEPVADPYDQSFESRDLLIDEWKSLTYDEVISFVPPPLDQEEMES
Chain of Tyrosine-protein kinase Fyn (P06241 whole entry): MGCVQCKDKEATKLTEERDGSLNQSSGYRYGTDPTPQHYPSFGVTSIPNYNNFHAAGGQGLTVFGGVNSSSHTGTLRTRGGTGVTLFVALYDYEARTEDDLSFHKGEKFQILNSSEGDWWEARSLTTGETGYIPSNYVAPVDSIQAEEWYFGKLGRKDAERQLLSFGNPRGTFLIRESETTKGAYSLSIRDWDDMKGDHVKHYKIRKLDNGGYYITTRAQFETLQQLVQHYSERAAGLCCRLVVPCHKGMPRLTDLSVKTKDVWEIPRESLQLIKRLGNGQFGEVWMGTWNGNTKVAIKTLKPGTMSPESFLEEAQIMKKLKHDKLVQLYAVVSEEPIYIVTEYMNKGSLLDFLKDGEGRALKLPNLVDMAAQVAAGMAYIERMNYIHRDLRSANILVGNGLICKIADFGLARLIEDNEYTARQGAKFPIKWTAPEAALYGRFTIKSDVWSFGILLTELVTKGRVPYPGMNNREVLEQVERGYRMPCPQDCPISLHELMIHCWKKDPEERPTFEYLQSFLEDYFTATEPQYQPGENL
Chain of Acetylcholinesterase (P22303 whole entry): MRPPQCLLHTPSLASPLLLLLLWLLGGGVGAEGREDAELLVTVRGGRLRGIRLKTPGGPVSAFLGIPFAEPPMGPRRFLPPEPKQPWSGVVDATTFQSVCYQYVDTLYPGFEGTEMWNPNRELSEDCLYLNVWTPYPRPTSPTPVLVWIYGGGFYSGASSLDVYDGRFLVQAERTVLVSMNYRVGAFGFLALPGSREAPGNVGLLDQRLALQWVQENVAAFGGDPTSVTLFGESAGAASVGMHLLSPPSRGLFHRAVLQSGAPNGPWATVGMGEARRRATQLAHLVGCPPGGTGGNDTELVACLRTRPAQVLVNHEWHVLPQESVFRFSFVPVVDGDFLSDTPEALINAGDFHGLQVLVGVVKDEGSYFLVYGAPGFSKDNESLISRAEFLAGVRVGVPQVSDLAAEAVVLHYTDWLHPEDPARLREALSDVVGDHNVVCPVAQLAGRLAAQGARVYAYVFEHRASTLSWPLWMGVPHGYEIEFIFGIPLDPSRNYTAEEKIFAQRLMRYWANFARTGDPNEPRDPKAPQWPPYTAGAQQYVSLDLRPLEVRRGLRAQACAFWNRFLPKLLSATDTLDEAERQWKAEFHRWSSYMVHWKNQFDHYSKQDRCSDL
Chain of Cannabinoid receptor 1 (P21554 whole entry): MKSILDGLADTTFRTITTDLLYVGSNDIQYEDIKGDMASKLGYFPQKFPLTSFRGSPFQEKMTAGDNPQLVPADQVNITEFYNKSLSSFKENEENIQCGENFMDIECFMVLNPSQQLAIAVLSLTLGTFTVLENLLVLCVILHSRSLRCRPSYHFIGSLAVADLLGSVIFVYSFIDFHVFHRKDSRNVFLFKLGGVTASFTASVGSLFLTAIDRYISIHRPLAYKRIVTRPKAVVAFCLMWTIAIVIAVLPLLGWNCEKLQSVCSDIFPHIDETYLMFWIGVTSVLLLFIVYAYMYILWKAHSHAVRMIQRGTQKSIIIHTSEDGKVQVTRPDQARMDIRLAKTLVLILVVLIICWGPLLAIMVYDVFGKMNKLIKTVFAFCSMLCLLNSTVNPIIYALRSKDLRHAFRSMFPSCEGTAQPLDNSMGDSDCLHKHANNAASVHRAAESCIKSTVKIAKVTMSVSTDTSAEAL

In general, IC50 refers to the concentration at which inhibition is half-maximal. Broadly, the Ki is a measure of affinity in units of concentration, obtained from inhibition or displacement. Take `CC=CC(=O)N(CC)c1ccccc1C`: the half-inhibitory concentration (IC50) entry in [1], in data set [2], in data set [3] (cho), in data set [4], in data set [5] and in [6] was “Not Active” each time. Also, the IC50 entry in data set [7], in data set [8], in data set [9], in [10], in data set [11] (cho-k1) and in [12] was “Not Active” each time. Moreover, the IC50 entry in [13] is reported as “Not Active”. Besides, the Ki entry in data set [2], in [6], in data set [12] and in [13] was “Not Active” throughout.

Regarding `C=C1C(=O)O[C@@H]2C3O[C@]3(C)CC/C=C(\C)CC[C@@H]12` (stereo partly specified), the concentration for half-maximal inhibition (IC50) result in data set [1], in data set [2], in [3] (cho), in [4], in data set [5] and in data set [6] was “Not Active” each time. For the same compound, the IC50 entry in data set [7], in data set [8], in [9], in data set [10], in data set [11] (cho-k1) and in data set [12] was “Not Active” throughout. Further, the IC50 entry in data set [13] is on record as “Not Active”. The Ki result in data set [2], in data set [6], in data set [12] and in data set [13] was “Not Active” throughout.

Take `CC(/C=C1\SC(=S)N(CC(=O)O)C1=O)=C\c1ccccc1`: the IC50 result in data set [1], in [2], in [3] (cho), in [4], in data set [5] and in data set [6] was “Not Active” throughout. The concentration for half-maximal inhibition (IC50) entry in data set [7], in data set [8], in data set [9], in data set [10], in data set [11] (cho-k1) and in data set [12] was “Not Active” throughout. Besides, the IC50 entry in [13] is recorded as “Not Active”. Moreover, the inhibition constant (Ki) entry in data set [2], in data set [6], in data set [12] and in data set [13] was “Not Active” in each case.

Take `CCCCCCCCCc1ccc(O)cc1` [4-NONYLPHENOL]: the IC50 result was “Not Active” in data set [1]; “Not Active” in data set [2]; 4510 nM in [3] (read-out: IC50); “Not Active” in data set [4]; “Not Active” in data set [5]; “Not Active” in data set [6]. The IC50 entry in [7] was “Not Active”; in [8], “Not Active”; in data set [9], “Not Active”; in data set [10] it was “Not Active”; in data set [11] (read-out: IC50), 1920 nM; in data set [12] it was “Not Active”. Besides, in data set [13], the concentration for half-maximal inhibition (IC50) result is “Not Active”. In addition, the inhibition constant Ki result in [2] was “Not Active”; in data set [3] (read-out: Ki), 1510 nM; in [6], “Not Active”; in data set [11] (read-out: Ki), 1080 nM; in data set [12], “Not Active”; in [13], “Not Active”.

For the compound `COc1ccc2c(c1)c(CC(=O)OCC(=O)O)c(C)n2C(=O)c1ccc(Cl)cc1` [ACEMETACIN], the IC50 result in [1], in data set [2], in data set [3] (cho), in [4], in data set [5] and in data set [6] was “Not Active” in each case. Further, the IC50 entry in data set [7], in data set [8], in data set [9], in data set [10], in data set [11] (cho-k1) and in [12] was “Not Active” in each case. Further, the IC50 entry in [13] was “Not Active”. Further, the inhibition constant Ki entry in data set [2], in data set [6], in [12] and in data set [13] was “Not Active” each time.

In the case of `CCCSc1ccc2nc(NC(=O)OC)[nH]c2c1` [ALBENDAZOLE], the concentration for half-maximal inhibition (IC50) entry in data set [1], in [2], in data set [3] (cho), in data set [4], in [5] and in data set [6] was “Not Active” in each case. Besides, the concentration for half-maximal inhibition (IC50) result in data set [7], in data set [8], in data set [9], in data set [10], in data set [11] (cho-k1) and in data set [12] was “Not Active” throughout. Also, in data set [13], the IC50 entry is on record as “Not Active”. Further, the inhibition constant (Ki) result in [2], in data set [6], in data set [12] and in data set [13] was “Not Active” each time.

In the case of `Cc1[nH]cnc1CN1CCc2c(c3ccccc3n2C)C1=O` [ALOSETRON], the concentration for half-maximal inhibition (IC50) entry in data set [1], in data set [2], in data set [3] (cho), in data set [4], in data set [5] and in data set [6] was “Not Active” throughout. The IC50 entry in [7], in [8], in data set [9], in [10], in data set [11] (cho-k1) and in data set [12] was “Not Active” throughout. In [13], the IC50 result is listed as “Not Active”. Besides, the Ki entry in data set [2], in [6], in data set [12] and in [13] was “Not Active” throughout.
